PubChem BioAssay (NCI)
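Five concentrations, 48 hours, 96-well plates. At the GI50, growth is halved. TGI: concentration producing complete growth inhibition.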

Experiments:
Assay in all cases: NCI tumour cell line growth inhibition, 48 h
[1] = test system: NCI-H460 lung
[2] = test system: SK-OV-3 ovarian
[3] = test system: DMS 273 small cell lung
[4] = test system: A498 renal
[5] = test system: SNB-78 CNS
[6] = test system: CCRF-CEM leukemia
[7] = test system: SK-MEL-2 melanoma
[8] = test system: UO-31 renal
[9] = test system: HCT-15 colon
[10] = test system: KM20L2 colon
[11] = test system: OVCAR-5 ovarian
[12] = test system: LXFL 529 NSCLC
[13] = test system: SF-268 CNS
[14] = test system: M19-MEL melanoma
[15] = test system: NCI-H226 lung
[16] = test system: SNB-75 CNS
[17] = test system: OVCAR-4 ovarian
[18] = test system: LOX IMVI melanoma
[19] = test system: COLO 205 colon
[20] = test system: SF-539 CNS
[21] = test system: OVCAR-8 ovarian
[22] = test system: A549 NSCLC
[23] = test system: KM12 colon
[24] = test system: EKVX NSCLC
[25] = test system: HCT-116 colon
[26] = test system: SNB-19 CNS
[27] = test system: RPMI-8226 leukemia
[28] = test system: TK-10 renal
[29] = test system: U251 CNS
[30] = test system: K-562 leukemia
[31] = test system: RXF 393 renal
[32] = test system: SF-295 CNS
[33] = test system: CAKI-1 renal
[34] = test system: M14 melanoma
[35] = test system: ACHN renal
[36] = test system: IGROV1 ovarian
[37] = test system: NCI-H23 lung
[38] = test system: HOP-92 NSCLC
[39] = test system: SR leukemia
[40] = test system: MOLT-4 leukemia
[41] = test system: DLD-1 colon
[42] = test system: HOP-62 NSCLC
[43] = test system: HCC-2998 colon
[44] = test system: SN12C renal
[45] = test system: HL-60(TB) leukemia
[46] = test system: NCI-H522 lung
[47] = test system: SW-620 colon
[48] = test system: UACC-257 melanoma
[49] = test system: UACC-62 melanoma
[50] = test system: SK-MEL-28 melanoma
[51] = test system: HT29 colon
[52] = test system: SK-MEL-5 melanoma
[53] = test system: MALME-3M melanoma
[54] = test system: OVCAR-3 ovarian
[55] = test system: HOP-18 NSCLC
[56] = test system: 786-0 renal
[57] = test system: DMS 114 small cell lung

`COc1cccc(NC(=O)C(=O)C(C(=O)c2ccccc2F)C2OC(=O)c3ccccc32)c1` (stereo unspecified) was tested, and the TGI [1] was over 100 µM, the TGI [2] was over 100 µM and the TGI [3] was over 100 µM. The TGI [4] was over 100 µM, the TGI [5] was over 100 µM and the TGI [6] was 62.3 µM. The TGI [7] was 75.2 µM, the TGI [8] was over 100 µM and the TGI [9] was over 100 µM. For the same compound, the TGI [10] was over 100 µM, the TGI [11] was over 100 µM and the TGI [12] was over 100 µM. For the same compound, the TGI [13] was over 100 µM, the TGI [14] was over 100 µM and the TGI [15] was 63.5 µM. The TGI [16] was 70.9 µM, the TGI [17] was over 100 µM and the TGI [18] was 63.3 µM. The TGI [19] was 39.5 µM, the TGI [20] was 57.3 µM and the TGI [21] was 60.9 µM. For the same compound, the TGI [22] was over 100 µM, the TGI [23] was over 100 µM and the TGI [24] was over 100 µM. The TGI [25] was 46.1 µM, the TGI [26] was over 100 µM and the TGI [27] was 96.1 µM. For the same compound, the TGI [28] was over 100 µM, the TGI [29] was 36.2 µM and the TGI [30] was over 100 µM. It also gave a TGI [31] of 63.6 µM, a TGI [32] of over 100 µM and a TGI [33] of over 100 µM. It also gave a TGI [34] of over 100 µM, a TGI [35] of over 100 µM and a TGI [36] of over 100 µM. The TGI [37] was 98.1 µM, the TGI [38] was over 100 µM and the TGI [39] was 48.5 µM. It also gave a TGI [40] of over 100 µM, a TGI [41] of over 100 µM and a TGI [42] of over 100 µM. For the same compound, the TGI [43] was 39.2 µM, the TGI [44] was over 100 µM and the TGI [45] was 54.1 µM. The TGI [46] was 40.7 µM, the TGI [47] was over 100 µM and the TGI [48] was over 100 µM. For the same compound, the TGI [49] was over 100 µM, the TGI [50] was over 100 µM and the TGI [51] was over 100 µM. For the same compound, the TGI [52] was over 100 µM.

Work on `CC(=O)[CH-]C(=O)c1ccccc1.CC(=O)[CH-]C(=O)c1ccccc1.C[C@]12CCC(=O)C=C1CC[C@@H]1C2CC[C@@]2(C)C1CC[C@@H]2[O-].C[C@]12CCC(=O)C=C1CC[C@@H]1C2CC[C@@]2(C)C1CC[C@@H]2[O-].Cl.[Ti+4]` (stereo partly specified) yielded a GI50 [1] of 14.8 µM, a TGI [1] of 30.9 µM and a GI50 [2] of 27 µM. The TGI [2] was 56.9 µM, the GI50 [3] was 21.2 µM and the TGI [3] was 69.5 µM. The GI50 [4] was 16.5 µM, the TGI [4] was 30.8 µM and the GI50 [6] was 23.8 µM. For the same compound, the TGI [6] was over 100 µM, the GI50 [7] was 12.7 µM and the TGI [7] was 31.4 µM. For the same compound, the GI50 [8] was 16.5 µM, the TGI [8] was 52.5 µM and the GI50 [9] was 15.2 µM. It also gave a TGI [9] of 43 µM, a GI50 [10] of 13.1 µM and a TGI [10] of 34.1 µM. For the same compound, the GI50 [11] was 11.8 µM, the TGI [11] was 55.8 µM and the GI50 [12] was 24.3 µM. The TGI [12] was 87.3 µM, the GI50 [14] was 23.7 µM and the TGI [14] was 96.9 µM. The GI50 [15] was 12.9 µM, the TGI [15] was 35.2 µM and the GI50 [17] was 23.4 µM. The TGI [17] was over 100 µM, the GI50 [53] was 20.1 µM and the TGI [53] was 46.8 µM. It also gave a GI50 [18] of 16.9 µM, a TGI [18] of 38.8 µM and a GI50 [19] of 37 µM. For the same compound, the TGI [19] was over 100 µM, the GI50 [21] was 22.6 µM and the TGI [21] was 93.6 µM. It also gave a GI50 [22] of 18.4 µM, a TGI [22] of 43.9 µM and a GI50 [23] of 20.3 µM. For the same compound, the TGI [23] was 66.2 µM, the GI50 [25] was 27.6 µM and the TGI [25] was over 100 µM. For the same compound, the GI50 [54] was 13.2 µM, the TGI [54] was 65.5 µM and the GI50 [27] was 18.8 µM. It also gave a TGI [27] of over 100 µM, a GI50 [28] of 29.4 µM and a TGI [28] of over 100 µM. For the same compound, the GI50 [30] was 23.2 µM, the TGI [30] was over 100 µM and the GI50 [31] was 16.2 µM. It also gave a TGI [31] of 31.9 µM, a GI50 [33] of 13.8 µM and a TGI [33] of 46.4 µM. The GI50 [34] was 15.9 µM, the TGI [34] was 41.8 µM and the GI50 [35] was 17.2 µM. The TGI [35] was 49.5 µM, the GI50 [36] was 21.8 µM and the TGI [36] was 46.4 µM. The GI50 [37] was 16.2 µM, the TGI [37] was 32.1 µM and the GI50 [55] was 28.6 µM. The TGI [55] was 91.4 µM, the GI50 [56] was 13.5 µM and the TGI [56] was 26.3 µM. It also gave a GI50 [40] of 35.3 µM, a TGI [40] of over 100 µM and a GI50 [41] of 18.3 µM. It also gave a TGI [41] of 45.9 µM, a GI50 [42] of 20.6 µM and a TGI [42] of 59.9 µM. The GI50 [43] was 21.8 µM, the TGI [43] was 42.2 µM and the GI50 [44] was 20.8 µM. The TGI [44] was 70.6 µM, the GI50 [45] was 8.82 µM and the TGI [45] was 69.1 µM. The GI50 [46] was 13.6 µM, the TGI [46] was 34.8 µM and the GI50 [47] was 17.5 µM. The TGI [47] was 43.7 µM, the GI50 [48] was 19.3 µM and the TGI [48] was 69.7 µM. The GI50 [49] was 6.67 µM, the TGI [49] was 33.8 µM and the GI50 [50] was 32.9 µM. The TGI [50] was over 100 µM, the GI50 [51] was 17.5 µM and the TGI [51] was 37.2 µM. It also gave a GI50 [52] of 11.3 µM and a TGI [52] of 32 µM.

Compound `CC(C)(C)C1=CC(=C2C(=O)C(=O)c3ccccc3C2=O)C=C(C(C)(C)C)C1=O` has a TGI [1] of over 100 µM, a TGI [2] of over 100 µM and a TGI [3] of over 100 µM. For the same compound, the TGI [4] was 0.93 µM, the TGI [5] was over 100 µM and the TGI [6] was over 100 µM. For the same compound, the TGI [7] was over 100 µM, the TGI [8] was over 100 µM and the TGI [9] was over 100 µM. The TGI [10] was over 100 µM, the TGI [11] was over 100 µM and the TGI [12] was over 100 µM. The TGI [13] was over 100 µM, the TGI [14] was over 100 µM and the TGI [57] was 66.2 µM. For the same compound, the TGI [16] was over 100 µM, the TGI [53] was 58.7 µM and the TGI [18] was over 100 µM. The TGI [19] was over 100 µM, the TGI [20] was over 100 µM and the TGI [21] was over 100 µM. The TGI [22] was over 100 µM, the TGI [23] was over 100 µM and the TGI [24] was over 100 µM. It also gave a TGI [25] of over 100 µM, a TGI [54] of over 100 µM and a TGI [26] of over 100 µM. For the same compound, the TGI [27] was 86.9 µM, the TGI [28] was over 100 µM and the TGI [29] was over 100 µM. For the same compound, the TGI [30] was over 100 µM, the TGI [32] was over 100 µM and the TGI [33] was over 100 µM. It also gave a TGI [34] of over 100 µM, a TGI [35] of over 100 µM and a TGI [36] of over 100 µM. For the same compound, the TGI [37] was over 100 µM, the TGI [55] was over 100 µM and the TGI [38] was 82.9 µM. The TGI [56] was over 100 µM, the TGI [41] was over 100 µM and the TGI [42] was over 100 µM. It also gave a TGI [43] of over 100 µM, a TGI [44] of over 100 µM and a TGI [45] of over 100 µM. For the same compound, the TGI [46] was 37.9 µM, the TGI [47] was over 100 µM and the TGI [48] was 80.2 µM. For the same compound, the TGI [49] was over 100 µM, the TGI [50] was over 100 µM and the TGI [51] was over 100 µM. For the same compound, the TGI [52] was over 100 µM.
